# Results as given in US10214508B2, “Nitrogen-containing heterocyclic compound” (Takeda Pharmaceutical Company Limited, priority 2014, dated 2019).
# Target: T1, human M1 receptor (hCHRM1) (Homo sapiens, UniProt P11229)
# T1 construct: expressed in transfected cells
# T1 sequence (P11229 1-460): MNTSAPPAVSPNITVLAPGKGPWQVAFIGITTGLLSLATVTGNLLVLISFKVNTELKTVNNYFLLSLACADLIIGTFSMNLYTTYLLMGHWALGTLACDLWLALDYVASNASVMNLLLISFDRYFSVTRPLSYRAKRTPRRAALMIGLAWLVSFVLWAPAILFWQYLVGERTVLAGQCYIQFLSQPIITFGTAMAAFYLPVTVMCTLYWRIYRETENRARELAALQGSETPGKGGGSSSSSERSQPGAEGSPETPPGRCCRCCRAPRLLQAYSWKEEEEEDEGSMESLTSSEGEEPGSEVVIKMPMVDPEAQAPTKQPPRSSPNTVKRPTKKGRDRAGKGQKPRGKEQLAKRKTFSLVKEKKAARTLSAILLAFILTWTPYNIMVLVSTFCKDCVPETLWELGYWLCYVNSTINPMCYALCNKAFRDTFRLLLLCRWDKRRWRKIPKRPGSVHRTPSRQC
# Experiment: Measurement of M1 receptor positive allosteric modulator (M1PAM) activity, calcium fluorescence (FLIPRtetra)
# Assay type: cell-based
# Details: 10 μM test compound with acetylcholine at EC20 (final 0.6-0.8 nM); 100% = acetylcholine 1 μM, 0% = DMSO; CHO-K1 cells expressing hCHRM1
# Outline: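 CHO-K1 cells stably expressing hM1 were Fluo-4-loaded; compound added with acetylcholine at EC20 (0.6-0.8 nM final), calcium fluorescence read 1 min on FLIPRtetra. Activity scaled between DMSO (0%) and 1 μM acetylcholine (100%); inflection point of concentration–response reported as IP.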
row,activity (%) at 10 μM [%],Structure (SMILES)
1,99,"COc1nc(C(=O)N[C@H]2CCCC[C@@H]2O)cc(Cc2ccc(-c3ccn(C)n3)cc2)c1C [Example 88, N-((1S,2S)-2-hydroxycyclohexyl)-6-methoxy-5-methyl-4-(4-(1-methyl-1H-pyrazol-3-yl)benzyl)pyridine-2-carboxamide]"
2,101,"COc1nc(C(=O)N[C@H]2COCC[C@@H]2O)cc(Cc2ccc(-c3ccn(C)n3)cc2)c1C [Example 89, 1,5-anhydro-2,4-dideoxy-2-(((6-methoxy-5-methyl-4-(4-(1-methyl-1H-pyrazol-3-yl)benzyl)pyridin-2-yl)carbonyl)amino)-L-threo-pentitol]"
3,106,"COc1nc(C(=O)N[C@H]2CCC[C@@H]2O)cc(Cc2ccc(-c3ccn(C)n3)cc2)c1C [Example 90, N-((1S,2S)-2-hydroxycyclopentyl)-6-methoxy-5-methyl-4-(4-(1-methyl-1H-pyrazol-3-yl)benzyl)pyridine-2-carboxamide]"
4,98,"COc1nc(C(=O)N[C@H]2CCCC[C@@H]2O)cc(Cc2ccc(-n3cccn3)cc2)c1C [Example 91, N-((1S,2S)-2-hydroxycyclohexyl)-6-methoxy-5-methyl-4-(4-(1H-pyrazol-1-yl)benzyl)pyridine-2-carboxamide]"
5,99,"COc1nc(C(=O)N[C@H]2COCC[C@@H]2O)cc(Cc2ccc(-n3cccn3)cc2)c1C [Example 92, 1,5-anhydro-2,4-dideoxy-2-(((6-methoxy-5-methyl-4-(4-(1H-pyrazol-1-yl)benzyl)pyridin-2-yl)carbonyl)amino)-L-threo-pentitol]"
6,105,"COc1nc(C(=O)N[C@H]2CCC[C@@H]2O)cc(Cc2ccc(-n3cccn3)cc2)c1C [Example 93, N-((1S,2S)-2-hydroxycyclopentyl)-6-methoxy-5-methyl-4-(4-(1H-pyrazol-1-yl)benzyl)pyridine-2-carboxamide]"
7,101,"O=C(N[C@H]1CCCC[C@@H]1O)c1cc(Cc2ccc(-n3cccn3)cc2)c(OC(F)F)cn1 [Example 94, 5-(difluoromethoxy)-N-((1S,2S)-2-hydroxycyclohexyl)-4-(4-(1H-pyrazol-1-yl)benzyl)pyridine-2-carboxamide]"
8,99,"O=C(N[C@H]1COCC[C@@H]1O)c1cc(Cc2ccc(-n3cccn3)cc2)c(OC(F)F)cn1 [Example 95, 1,5-anhydro-2,4-dideoxy-2-(((5-(difluoromethoxy)-4-(4-(1H-pyrazol-1-yl)benzyl)pyridin-2-yl)carbonyl)amino)-L-threo-pentitol]"
9,112,"Cc1nc(C(=O)N[C@H]2COCC[C@@H]2O)cc(Cc2ccc(-c3ccn(C)n3)cc2)c1Cl [Example 96, 1,5-anhydro-2-(((5-chloro-6-methyl-4-(4-(1-methyl-1H-pyrazol-3-yl)benzyl)pyridin-2-yl)carbonyl)amino)-2,4-dideoxy-L-threo-pentitol]"
10,93,"Cc1nc(C(=O)N[C@H]2CCC[C@@H]2O)cc(Cc2ccc(-c3ccn(C)n3)cc2)c1Cl [Example 97, 5-chloro-N-((1S,2S)-2-hydroxycyclopentyl)-6-methyl-4-(4-(1-methyl-1H-pyrazol-3-yl)benzyl)pyridine-2-carboxamide]"
11,94,"Cc1nc(C(=O)N[C@H]2CCCC[C@@H]2O)cc(Cc2ccc(-n3cccn3)cc2)c1Cl [Example 98, 5-chloro-N-((1S,2S)-2-hydroxycyclohexyl)-6-methyl-4-(4-(1H-pyrazol-1-yl)benzyl)pyridine-2-carboxamide]"
12,96,"Cc1nc(C(=O)N[C@H]2COCC[C@@H]2O)cc(Cc2ccc(-n3cccn3)cc2)c1Cl [Example 99, 1,5-anhydro-2-(((5-chloro-6-methyl-4-(4-(1H-pyrazol-1-yl)benzyl)pyridin-2-yl)carbonyl)amino)-2,4-dideoxy-L-threo-pentitol]"
13,97,"Cc1nc(C(=O)N[C@H]2CCC[C@@H]2O)cc(Cc2ccc(-n3cccn3)cc2)c1Cl [Example 100, 5-chloro-N-((1S,2S)-2-hydroxycyclopentyl)-6-methyl-4-(4-(1H-pyrazol-1-yl)benzyl)pyridine-2-carboxamide]"
14,105,"Cc1nc(C(=O)N[C@H]2COCC[C@@H]2O)cc(Cc2ccc(C#N)cc2)c1Cl [Example 101, 1,5-anhydro-2-(((5-chloro-4-(4-cyanobenzyl)-6-methylpyridin-2-yl)carbonyl)amino)-2,4-dideoxy-L-threo-pentitol]"
15,104,"COc1ccc(Cc2cc(C(=O)N[C@H]3COCC[C@@H]3O)nc(C)c2Cl)cc1 [Example 102, 1,5-anhydro-2-(((5-chloro-4-(4-methoxybenzyl)-6-methylpyridin-2-yl)carbonyl)amino)-2,4-dideoxy-L-threo-pentitol]"
16,109,"Cc1nc(C(=O)N[C@H]2CCCC[C@@H]2O)cc(Cc2ccc(Cl)nc2)c1Cl [Example 103, 5-chloro-4-((6-chloropyridin-3-yl)methyl)-N-((1S,2S)-2-hydroxycyclohexyl)-6-methylpyridine-2-carboxamide]"
17,102,"Cc1nc(C(=O)N[C@H]2CCCC[C@@H]2O)cc(Cc2ccc(C#N)nc2)c1Cl [Example 104, 5-chloro-4-((6-cyanopyridin-3-yl)methyl)-N-((1S,2S)-2-hydroxycyclohexyl)-6-methylpyridine-2-carboxamide]"
18,100,"COc1ccc(Cc2cc(C(=O)N[C@H]3CCCC[C@@H]3O)nc(C)c2Cl)cn1 [Example 105, 5-chloro-N-((1S,2S)-2-hydroxycyclohexyl)-4-((6-methoxypyridin-3-yl)methyl)-6-methylpyridine-2-carboxamide]"
19,104,"COc1ccc(Cc2cc(C(=O)N[C@H]3COCC[C@@H]3O)nc(C)c2Cl)cn1 [Example 106, 1,5-anhydro-2-(((5-chloro-4-((6-methoxypyridin-3-yl)methyl)-6-methylpyridin-2-yl)carbonyl)amino)-2,4-dideoxy-L-threo-pentitol]"
20,101,"Cc1nc(C(=O)N[C@H]2CCCC[C@@H]2O)cc(Cc2ccc(-c3ccn(C)n3)nc2)c1Cl [Example 107, 5-chloro-N-((1S,2S)-2-hydroxycyclohexyl)-6-methyl-4-((6-(1-methyl-1H-pyrazol-3-yl)pyridin-3-yl)methyl)pyridine-2-carboxamide]"
21,114,"CCn1cc(-c2ccc(Cc3cc(C(=O)N[C@H]4CCCC[C@@H]4O)nc(C)c3Cl)cn2)cn1 [Example 108, 5-chloro-4-((6-(1-ethyl-1H-pyrazol-4-yl)pyridin-3-yl)methyl)-N-((1S,2S)-2-hydroxycyclohexyl)-6-methylpyridine-2-carboxamide]"
22,95,"Cc1nn(C)cc1-c1ccc(Cc2cc(C(=O)N[C@H]3CCCC[C@@H]3O)nc(C)c2Cl)cn1 [Example 109, 5-chloro-4-((6-(1,3-dimethyl-1H-pyrazol-4-yl)pyridin-3-yl)methyl)-N-((1S,2S)-2-hydroxycyclohexyl)-6-methylpyridine-2-carboxamide]"
23,95,"Cc1ccc(Cc2cc(C(=O)N[C@H]3CCCC[C@@H]3O)nc(C)c2Cl)cn1 [Example 110, 5-chloro-N-((1S,2S)-2-hydroxycyclohexyl)-6-methyl-4-((6-methylpyridin-3-yl)methyl)pyridine-2-carboxamide]"
24,90,"Cc1ccc(Cc2cc(C(=O)N[C@H]3COCC[C@@H]3O)nc(C)c2Cl)cn1 [Example 111, 1,5-anhydro-2-(((5-chloro-6-methyl-4-((6-methylpyridin-3-yl)methyl)pyridin-2-yl)carbonyl)amino)-2,4-dideoxy-L-threo-pentitol]"
25,91,"Cc1nc(C(=O)N[C@H]2CCCC[C@@H]2O)cc(Cc2ccc(-n3cccn3)cc2)c1C#N [Example 112, 5-cyano-N-((1S,2S)-2-hydroxycyclohexyl)-6-methyl-4-(4-(1H-pyrazol-1-yl)benzyl)pyridine-2-carboxamide]"
26,94,"Cc1nc(C(=O)N[C@H]2COCC[C@@H]2O)cc(Cc2ccc(-n3cccn3)cc2)c1C#N [Example 113, 1,5-anhydro-2-(((5-cyano-6-methyl-4-(4-(1H-pyrazol-1-yl)benzyl)pyridin-2-yl)carbonyl)amino)-2,4-dideoxy-L-threo-pentitol]"
27,94,"Cc1nc(C(=O)N[C@H]2CCCC[C@@H]2O)cc(Cc2ccc(-c3ccn(C)n3)cc2)c1C#N [Example 114, 5-cyano-N-((1S,2S)-2-hydroxycyclohexyl)-6-methyl-4-(4-(1-methyl-1H-pyrazol-3-yl)benzyl)pyridine-2-carboxamide]"
28,111,"Cc1nc(C(=O)N[C@H]2COCC[C@@H]2O)cc(Cc2ccc(-c3ccn(C)n3)cc2)c1C#N [Example 115, 1,5-anhydro-2-(((5-cyano-6-methyl-4-(4-(1-methyl-1H-pyrazol-3-yl)benzyl)pyridin-2-yl)carbonyl)amino)-2,4-dideoxy-L-threo-pentitol]"
29,104,"Cc1nc(C(=O)N[C@H]2CCC[C@@H]2O)cc(Cc2ccc(Cl)nc2)c1C [Example 116, 4-((6-chloropyridin-3-yl)methyl)-N-((1S,2S)-2-hydroxycyclopentyl)-5,6-dimethylpyridine-2-carboxamide]"
